“Also recorded” adds a separate entry of the source. Where two headings read alike, the source gives them in different places.
Experiments:
[1] = biological target: T1, serotonin uptake sites (rat cerebral cortical membranes) (Rattus norvegicus, UniProt P31652); experiment: [^3 H]6-nitroquipazine binding to cerebral cortical membranes after serotonin neuronal lesions with p-chloroamphetamine; conditions: for Bmax / Kd: cerebral cortex, mean ± S.E.M.
T1 construct: The cerebral cortex of rat brain was rapidly dissected; from tissue; host or cells: rat cerebral cortex membranes (p-chloroamphetamine-treated rats)
Experimental: (§1) Aliquots of membrane suspension were incubated with [^3 H]6-nitroquipazine (30-1,200 pM) at 22° C. for 2 hours for the equilibrium saturation. After the addition of 4 ml of ice-cold buffer the homogenates were rapidly filtered through Whatman GF/C filters pretreated with 0.05% polyethleneimine. The filters were washed with ice-cold buffer (3×5 ml). The radioactivity trapped by the filters was determined by a liquid scintillation counter.
(§2) Rats were injected i.p. three times (24 hours interval) with p-chloroamphetamine (2.5 mg/kg), and were decapitated 7 days after final injection. The cerebral cortex of rat brain was rapidly dissected, and [^3 H]6-nitroquipazine binding to cerebral cortical membranes was examined as described previously.

[2] = biological target: T2, serotonin uptake sites (rat brain membranes) (Rattus norvegicus, UniProt P31652); experiment: [^3 H]6-Nitroquipazine saturation binding to rat brain membranes (Scatchard analysis)
T2 construct: from tissue; host or cells: rat brain minus cerebellum, pons and medulla oblongata; washed membrane homogenate
Experimental: (§3) Rats were killed by decapitation and the brains (minus cerebellum, pons medulla and oblongata) were rapidly removed. The brain tissue was homogenized in 50 volumes of ice-cold buffer (50 mM Tris-HCl, 120 mM NaCl, 5 mM KCl, pH 7.4) with a Kinematica Polytron homogenizer at setting 5 for 30 seconds. The homogenate was centrifuged at 48,000×g for 10 minutes. The resulting pellet was resuspended in 50 volumes of ice-cold buffer and recentrifuged. The final pellet was resuspended in the same 50 volumes of buffer.
as §1

[3] = biological target: serotonin uptake sites (rat brain regions) (Rattus norvegicus, UniProt P31652); experiment: Regional distribution of [^3 H]6-nitroquipazine binding in rat brain
Experimental: as §1
Rats were killed by decapitation and the brains were dissected (cerebral cortex, striatum, hippocampus, hypothalamus, midbrain, cerebellum, pons medulla and oblongata) on ice. [^3 H]6-Nitroquipazine binding was estimated as described previously.

rat cerebral cortex = experiment: Serotonin and 5-hydroxyindoleacetic acid content in cerebral cortex of p-chloroamphetamine lesioned rats; format: in vivo
Experimental: as §2

[4] = biological target: T3, serotonin uptake sites ([^3 H]6-nitroquipazine binding, rat brain membranes) (Rattus norvegicus, UniProt P31652); experiment: Inhibition of [^3 H]6-nitroquipazine binding by several drugs
T3 construct: from tissue; host or cells: rat brain minus cerebellum, pons and medulla oblongata; washed membrane homogenate
Experimental: as §3, §1
Ten different concentrations of the drugs were used for each determination. Aliquots of membrane suspension were incubated with [^3 H]6-nitroquipazine at 22° C. for 2 hours. The specific binding of [^3 H]6-nitroquipazine was determined as described in Example 2.
Drug IC50 values were defined by means of the iterative non-linear least-squares method.

[5] = […] [^3 H]6-nitroquipazine, 22° C., 2 hours

T3 sequence (P31652 whole entry): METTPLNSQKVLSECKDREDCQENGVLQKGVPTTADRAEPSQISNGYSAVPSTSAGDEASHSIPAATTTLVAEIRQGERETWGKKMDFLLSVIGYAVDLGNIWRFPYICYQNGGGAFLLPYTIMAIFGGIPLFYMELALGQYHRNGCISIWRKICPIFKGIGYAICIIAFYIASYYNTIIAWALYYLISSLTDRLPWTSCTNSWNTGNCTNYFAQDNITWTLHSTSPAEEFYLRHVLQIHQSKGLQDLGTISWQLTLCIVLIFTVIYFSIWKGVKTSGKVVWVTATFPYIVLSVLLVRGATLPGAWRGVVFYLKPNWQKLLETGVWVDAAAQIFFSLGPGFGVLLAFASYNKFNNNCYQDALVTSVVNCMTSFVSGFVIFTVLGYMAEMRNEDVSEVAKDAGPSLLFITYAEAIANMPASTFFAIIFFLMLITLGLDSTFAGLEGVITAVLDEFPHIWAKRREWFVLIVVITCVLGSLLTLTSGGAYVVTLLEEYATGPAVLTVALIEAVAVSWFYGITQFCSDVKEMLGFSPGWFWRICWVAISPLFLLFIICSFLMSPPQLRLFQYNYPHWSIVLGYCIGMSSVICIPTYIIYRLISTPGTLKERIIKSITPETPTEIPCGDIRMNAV
Chain of serotonin uptake sites (rat brain regions) (P31652 whole entry): as above
T2 sequence (P31652 whole entry): as above
T1 sequence (P31652 whole entry): as above

O=[N+]([O-])c1ccc2nc(N3CCNCC3)ccc2c1 [[^3 H]6-nitroquipazine, Tritium-labeled 6-nitro-2-piperazinylquinoline]
Bmax ([1]; control rats): 616.0 ± 64.4 fmole/mg protein | Kd ([1]; control rats): 0.141 nM | Bmax ([1]; rats treated with p-chloroamphetamine (2.5 mg/kg i.p. x3), ***P < 0.001 vs control): 170.5 ± 44.8 fmole/mg protein | Kd ([1]; rats treated with p-chloroamphetamine (2.5 mg/kg i.p. x3), *P < 0.01 vs control): 0.108 ± 0.01 nM | binding to rat brain membranes ([2]; FIG. 1): bound with high affinity to rat brain membranes in a saturable and reversible fashion | specific binding as share of total binding ([2]; at equilibrium, 110 pM [^3 H]6-nitroquipazine, non-specific: 1 μM paroxetine): 95% | potency compared with [^3 H]imipramine and [^3 H]paroxetine ([2]; no comparative data given): more potent than [^3 H]imipramine and [^3 H]paroxetine | Kd ([2]; rat brain membranes, 22° C., 2 hours, 30-1,200 pM radioligand, Scatchard analysis, read-out: apparent equilibrium dissociation constant (Kd)): 0.093 nM | maximal number of binding sites (Bmax) ([2]; rat brain membranes, 22° C., 2 hours, Scatchard analysis): 832 fmol/mg protein | Bmax ([3]; Cerebellum): 91.2 ± 4.0 fmole/mg protein | Bmax ([3]; Cortex): 565.6 ± 28.3 fmole/mg protein | Bmax ([3]; Hippocampus): 612.2 ± 35.4 fmole/mg protein | Bmax ([3]; Hypothalamus): 1211.8 ± 33.2 fmole/mg protein | Bmax ([3]; Medulla oblongata): 598.2 ± 25.6 fmole/mg protein | Bmax ([3]; Midbrain): 1107.8 ± 30.2 fmole/mg protein | Bmax ([3]; Striatum): 807.4 ± 41.5 fmole/mg protein | specific binding by brain region ([3]; rat brain regions): highest in the hypothalamus and midbrain; also recorded: moderately high in the striatum, hippocampus, medulla oblongata and cerebral cortex; also recorded: lowest in the cerebellum

CC(N)Cc1ccc(Cl)cc1 (centres unmarked) [p-chloroamphetamine]
endogenous serotonin levels and [^3 H]6-nitroquipazine binding (rat cerebral cortex; destruction of serotonin neuron terminals by p-chloroamphetamine): decreases in endogenous serotonin levels and [^3 H]6-nitroquipazine binding | content of 5-hydroxyindoleacetic acid in the cerebral cortex (rat cerebral cortex; lesioned rats, p-chloroamphetamine 2.5 mg/kg i.p. three times, control 0.2123±0.038): 0.0541±0.008 ng/mg tissue | content of serotonin in the cerebral cortex (rat cerebral cortex; lesioned rats, p-chloroamphetamine 2.5 mg/kg i.p. three times, control 0.3362±0.037): 0.129±0.037 ng/mg tissue | decrease of [^3 H]6-nitroquipazine binding to cortical membranes of lesioned rats compared to controls ([1]; p-chloroamphetamine 2.5 mg/kg i.p. three times, 7 days after final injection): 72% | Kd change in lesioned rats ([1]; p-chloroamphetamine 2.5 mg/kg i.p. three times, compared to controls): slightly decreased

O=[N+]([O-])c1ccc2nc(N3CCNCC3)ccc2c1 [6-Nitroquipazine, 6-nitro-2-piperazinylquinoline]
Ki [4, 5]: low nanomolar ranges | Ki ([4]; read-out: Ki): 0.128 nM

c1ccc2c(CCC3CCNCC3)c[nH]c2c1 [Indalpine]
Ki [4, 5]: low nanomolar ranges | Ki ([4]; read-out: Ki): 1.93 nM

Reference: patent US5120641A (Daiichi Pure Chemicals Co., Ltd., priority 1989, dated 1992)
